# Data reported in patent US12264139B2, “Aryl sulfonamides as BLT1 antagonists” (Merck Sharp & Dohme LLC, priority 2015, dated 2025).
# Molecular target: T1, human BLT1 receptor (Homo sapiens, UniProt Q15722)
# T1 construct: expressed in transfected cells; host or cells: HEK293
# Assay: BLT-1 cAMP Assay
# Assay type: cell-based
# Settings: HEK293 cells recombinantly expressing human BLT1; antagonist activity vs forskolin 4 μM and LTB4 2 nM; cAMP (CisBio kit)
# Protocol: The ability of compounds to antagonize the human BLT1 receptor was determined using a kit to measure changes in intracellular cyclic AMP levels (cAMP dynamic assay kit, Cisbio Cat. No. 62AM4PEC). […] The cell suspension was centrifuged at 200×g for 10 min and then resuspended in fresh assay medium to a density of 2.5×10^5 cells/mL. […] All subsequent liquid additions were performed using a BIORAPTR (FRD; Beckman Coulter). Next, 5 μL of cell suspension was added and incubated for 20 min. at 37° C. and 5% CO2 in a humidified plastic tray.
# The levels of cAMP were detected using the CisBio kit following the manufacturer's instructions: cAMP-d2 vial was reconstituted with distilled water and then diluted accordingly with conjugate & lysis buffer. 5 µL of cAMP-d2 working solution was added to all of the wells of the assay plate. cAMP-Cryptate vial was reconstituted with distilled water and then diluted accordingly with conjugate & lysis buffer. 5 µL of cAMP-Cryptate working solution were added to the assay plate. The assay plate was shaken for 3 minutes and incubated at room temperature for 45 minutes, then read on Perkin Elmer Envision. cAMP standard curve and fit data were plotted using a 4 parameter dose response curve fitting algorithm to fit curve. […] After normalization to treated and untreated controls, the percent effect of signal at each compound concentration was calculated. The plot of percent effect versus the log of compound concentration was fit with a 4-parameter concentration response equation to calculate EC50 values.
# T1 sequence (Q15722 whole entry): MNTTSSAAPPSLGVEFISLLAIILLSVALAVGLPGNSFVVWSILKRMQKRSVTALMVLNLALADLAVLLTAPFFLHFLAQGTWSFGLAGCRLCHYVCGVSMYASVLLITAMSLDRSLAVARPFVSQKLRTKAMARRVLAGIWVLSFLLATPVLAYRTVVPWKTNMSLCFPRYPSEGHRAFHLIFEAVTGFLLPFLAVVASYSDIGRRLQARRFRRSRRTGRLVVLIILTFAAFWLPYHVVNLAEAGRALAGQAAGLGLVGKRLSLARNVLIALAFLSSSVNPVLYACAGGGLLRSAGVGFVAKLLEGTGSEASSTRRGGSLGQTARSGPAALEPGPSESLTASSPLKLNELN
row,EC50,SMILES
1,826 nM,"Cc1nc(C[C@@H]2COc3cc(-c4ccccc4NS(=O)(=O)C(F)(F)F)ccc3[C@H]2O)cs1 (single isomer, unassigned) [Example 56, 1,1,1-Trifluoro-N-(2-{(3R,4S or 3S,4R)-4-hydroxy-3-[(2-methyl-1,3-thiazol-4-yl)methyl]-3,4-dihydro-2H-chromen-7-yl}phenyl)-methanesulfonamide]"
2,10 nM,"Cc1nc(C[C@H]2COc3cc(-c4ccccc4NS(=O)(=O)C(F)(F)F)ccc3[C@@H]2O)cs1 (single isomer, unassigned) [Example 57, 1,1,1-Trifluoro-N-(2-{(3S,4R or 3R,4S)-4-hydroxy-3-[(2-methyl-1,3-thiazol-4-yl)methyl]-3,4-dihydro-2H-chromen-7-yl}phenyl)-methanesulfonamide]"
3,15 nM,"O=S(=O)(Nc1ccccc1-c1ccc2c(c1)OC[C@H](Cc1ccccc1)[C@H]2O)C(F)(F)F (single isomer, unassigned) [Example 59, N-{2-[(3S,4R or 3R,4S)-3-benzyl-4-hydroxy-3,4-dihydro-2H-chromen-7-yl]phenyl}-1,1,1-trifluoromethanesulfonamide]"
4,269 nM,"Cc1cccnc1C[C@H]1COc2cc(-c3ccccc3NS(=O)(=O)C(F)(F)F)ccc2[C@@H]1O (single isomer, unassigned) [Example 60, 1,1,1-Trifluoro-N-(2-{(3,4-trans)-4-hydroxy-3-[(3-methylpyridin-2-yl)methyl]-3,4-dihydro-2H-chromen-7-yl}phenyl)methanesulfonamide]"
5,1340 nM,"O=S(=O)(Nc1ccccc1-c1ccc2c(c1)OC[C@@H](Cc1cccs1)[C@@H]2O)C(F)(F)F (single isomer, unassigned) [Example 61, 1,1,1-trifluoro-N-{2-[(3R,4S or 3S,4R)-4-hydroxy-3-(thiophen-2-ylmethyl)-3,4-dihydro-2H-chromen-7-yl]phenyl}methanesulfonamide]"
6,23 nM,"O=S(=O)(Nc1ccccc1-c1ccc2c(c1)OC[C@H](Cc1cccs1)[C@H]2O)C(F)(F)F (single isomer, unassigned) [Example 62, 1,1,1-trifluoro-N-{2-[(3S,4R or 3R,4S)-4-hydroxy-3-(thiophen-2-ylmethyl)-3,4-dihydro-2H-chromen-7-yl]phenyl}methanesulfonamide]"
7,320 nM,"Cc1cccc(C[C@@H]2COc3cc(-c4ccccc4NS(=O)(=O)C(F)(F)F)ccc3[C@H]2O)n1 (single isomer, unassigned) [Example 63, 1,1,1-Trifluoro-N-(2-{(3,4-trans)-4-hydroxy-3-[(6-methyl-pyridin-2-yl)methyl]-3,4-dihydro-2H-chromen-7-yl}-phenyl)methanesulfonamide]"
8,971 nM,"O=S(=O)(Nc1ccccc1-c1ccc2c(c1)OC[C@@H](Cc1csc(-c3ccccc3)n1)[C@@H]2O)C(F)(F)F (single isomer, unassigned) [Example 64, 1,1,1-Trifluoro-N-(2-((3R,4S or 3S,4R)-4-hydroxy-3-((2-phenylthiazol-4-yl)-methyl)chroman-7-yl)-phenyl)methanesulfonamide]"
9,47 nM,"O=S(=O)(Nc1ccccc1-c1ccc2c(c1)OC[C@H](Cc1csc(-c3ccccc3)n1)[C@H]2O)C(F)(F)F (single isomer, unassigned) [Example 65, 1,1,1-Trifluoro-N-(2-((3S,4R or 3R,4S)-4-hydroxy-3-((2-phenylthiazol-4-yl)-methyl)chroman-7-yl)-phenyl)methanesulfonamide]"
10,210 nM,"Cn1nccc1C[C@@H]1COc2cc(-c3ccccc3NS(=O)(=O)C(F)(F)F)ccc2[C@H]1O (single isomer, unassigned) [Example 66, 1,1,1-trifluoro-N-(2-{(3,4-trans)-4-hydroxy-3-[(1-methyl-1H-pyrazol-5-yl)methyl]-3,4-di-hydro-2H-chromen-7-yl}-phenyl)methanesulfonamide]"
11,48 nM,"O=S(=O)(Nc1ccccc1-c1ccc2c(c1)OC[C@@H](Cc1ccc(-c3ccccc3)cc1)[C@@H]2O)C(F)(F)F (single isomer, unassigned) [Example 67, N-{2-[(3S,4R or 3R,4S)-3-(biphenyl-4-ylmethyl)-4-hydroxy-3,4-dihydro-2H-chromen-7-yl]phenyl}-1,1,1-trifluoromethanesulfonamide]"
12,5.3 nM,"O=S(=O)(Nc1ccccc1-c1ccc2c(c1)OC[C@H](Cc1ccc(-c3ccccc3)cc1)[C@H]2O)C(F)(F)F (single isomer, unassigned) [Example 68, N-{2-[(3R,4S or 3S,4R)-3-(biphenyl-4-ylmethyl)-4-hydroxy-3,4-dihydro-2H-chromen-7-yl]phenyl}-1,1,1-trifluoromethanesulfonamide]"
13,30 nM,"O=S(=O)(Nc1ccccc1-c1ccc2c(c1)OC[C@@H](Cc1ncccc1F)[C@@H]2O)C(F)(F)F (single isomer, unassigned) [Example 69, 1,1,1-Trifluoro-N-(2-{(3,4-trans)-3-[(3-fluoropyridin-2-yl)methyl]-4-hydroxy-3,4-dihydro-2H-chromen-7-yl}phenyl)methanesulfonamide]"
14,261 nM,"Cc1nnc(C[C@@H]2COc3cc(-c4ccccc4NS(=O)(=O)C(F)(F)F)ccc3[C@H]2O)s1 (single isomer, unassigned) [Example 70, 1,1,1-Trifluoro-N-(2-{(3,4-trans)-4-hydroxy-3-[(5-methyl-1,3,4-thiadiazol-2-yl)methyl]-3,4-dihydro-2H-chromen-7-yl}phenyl)-methanesulfonamide]"
15,125 nM,"O=S(=O)(Nc1ccccc1-c1ccc2c(c1)OC[C@@H](Cc1cc[nH]n1)[C@@H]2O)C(F)(F)F (single isomer, unassigned) [Example 71, 1,1,1-trifluoro-N-{2-[(3,4-trans)-4-hydroxy-3-(1H-pyrazol-3-ylmethyl)-3,4-dihydro-2H-chromen-7-yl]phenyl}-methanesulfonamide]"
16,2980 nM,"CS(=O)(=O)Nc1ccccc1-c1ccc2c(c1)OC[C@H](Cc1ccccn1)[C@H]2O (single isomer, unassigned) [Example 72, N-{2-[(3S,4R or 3R,4S)-4-hydroxy-3-(pyridin-2-ylmethyl)-3,4-dihydro-2H-chromen-7-yl]phenyl}methanesulfonamide]"
17,193 nM,"CS(=O)(=O)Nc1ccccc1-c1ccc2c(c1)OC[C@@H](Cc1ccccn1)[C@@H]2O (single isomer, unassigned) [Example 73, N-{2-[(3R,4S or 3S,4R)-4-hydroxy-3-(pyridin-2-ylmethyl)-3,4-dihydro-2H-chromen-7-yl]phenyl}methanesulfonamide]"
18,235 nM,"CC1(S(=O)(=O)Nc2ccccc2-c2ccc3c(c2)OCC(Cc2ccccn2)C3O)CC1 (single isomer, unassigned) [Example 75, N-(2-((3,4-trans)-4-hydroxy-3-(pyridin-2-ylmethyl)chroman-7-yl)phenyl)-1-methylcyclopropane-1-sulfonamide]"
19,1860 nM,"O=S(=O)(CC(F)(F)F)Nc1nccnc1-c1ccc2c(c1)OC[C@@H](Cc1ccccn1)[C@@H]2O (single isomer, unassigned) [Example 76, 2,2,2-Trifluoro-N-(3-((3,4-trans)-4-hydroxy-3-(pyridin-2-ylmethyl)chroman-7-yl)pyrazin-2-yl)ethanesulfonamide]"
20,118 nM,"O=S(=O)(CC(F)(F)F)Nc1ncccc1-c1ccc2c(c1)OC[C@@H](Cc1ccccn1)[C@@H]2O (single isomer, unassigned) [Example 77, 2,2,2-Trifluoro-N-(3-((3R,4S or 3S,4R)-4-hydroxy-3-(pyridin-2-ylmethyl)chroman-7-yl)pyridin-2-yl)ethanesulfonamide]"
21,1870 nM,"O=S(=O)(CC(F)(F)F)Nc1ncccc1-c1ccc2c(c1)OC[C@@H](Cc1ccccn1)[C@@H]2O (single isomer, unassigned) [Example 78, 2,2,2-Trifluoro-N-(3-((3S,4R or 3R,4S)-4-hydroxy-3-(pyridin-2-ylmethyl)chroman-7-yl)pyridin-2-yl)ethanesulfonamide]"
22,35 nM,"O=S(=O)(CC(F)(F)F)Nc1ccccc1-c1ccc2c(c1)OC[C@@H](Cc1ccccn1)[C@@H]2O (single isomer, unassigned) [Example 79, 2,2,2-Trifluoro-N-(2-((3R,4S or 3S,4R)-4-hydroxy-3-(pyridin-2-ylmethyl)chroman-7-yl)phenyl)ethanesulfonamide]"
23,481 nM,"O=S(=O)(CC(F)(F)F)Nc1ccccc1-c1ccc2c(c1)OC[C@@H](Cc1ccccn1)[C@@H]2O (single isomer, unassigned) [Example 80, 2,2,2-Trifluoro-N-(2-((3S,4R or 3R,4S)-4-hydroxy-3-(pyridin-2-ylmethyl)chroman-7-yl)phenyl)ethanesulfonamide]"
24,15 nM,"O=S(=O)(Nc1ccccc1-c1ccc2c(c1)OC[C@@H](Cc1ccccn1)[C@@H]2O)C(F)F (single isomer, unassigned) [Example 81, 1,1-Difluoro-N-(2-((3R,4S or 3S,4R)-4-hydroxy-3-(pyridin-2-ylmethyl)chroman-7-yl)phenyl)methanesulfonamide]"
25,119 nM,"O=S(=O)(Nc1ccccc1-c1ccc2c(c1)OC[C@@H](Cc1ccccn1)[C@@H]2O)C(F)F (single isomer, unassigned) [Example 82, 1,1-Difluoro-N-(2-((3S,4R or 3R,4S)-4-hydroxy-3-(pyridin-2-ylmethyl)chroman-7-yl)phenyl)methanesulfonamide]"
